# In patent US20250163038A1, “CBL-B MODULATORS AND USES THEREOF” (Nimbus Clio, Inc., priority 2021, published 2025):
# Assays:
# [1] = tested on: Jurkat (clone E6-1) cells with NFAT luciferase reporter; assay: Jurkat reporter assay (NFAT Luciferase); assay type: cell-based; conditions: Homo sapiens; Jurkat NFAT luciferase reporter cells, anti-CD3 stimulation, 6 hr; read-out: Jurkat NFAT EC50
# [2] = target: Recombinant human Cbl-b (aa 36-427) (Homo sapiens, UniProt Q13191); assay: Cbl-b Biochemical Assay (TR-FRET); conditions: read-out: TR-FRET hCbl-b IC50
# Recombinant human Cbl-b (aa 36-427), sequence (Q13191 36-427): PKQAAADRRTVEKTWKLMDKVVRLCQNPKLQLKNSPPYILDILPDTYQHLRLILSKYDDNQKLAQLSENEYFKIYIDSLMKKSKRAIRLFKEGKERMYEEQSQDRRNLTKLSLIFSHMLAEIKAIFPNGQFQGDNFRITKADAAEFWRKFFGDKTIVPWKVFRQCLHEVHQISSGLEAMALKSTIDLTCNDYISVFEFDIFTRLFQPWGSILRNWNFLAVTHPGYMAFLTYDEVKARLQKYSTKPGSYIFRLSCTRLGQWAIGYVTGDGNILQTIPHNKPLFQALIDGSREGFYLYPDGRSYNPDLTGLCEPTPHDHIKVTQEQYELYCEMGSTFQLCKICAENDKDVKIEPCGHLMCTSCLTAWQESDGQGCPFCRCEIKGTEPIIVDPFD
# [3] = target: T1, Recombinant human c-Cbl (aa 47-435) (Homo sapiens, UniProt P22681); assay: c-Cbl Biochemical Assay (TR-FRET); conditions: hc-Cbl Biochemical Assay (TR-FRET); read-out: TR-FRET hcCbl IC50
# T1 sequence (P22681 47-435): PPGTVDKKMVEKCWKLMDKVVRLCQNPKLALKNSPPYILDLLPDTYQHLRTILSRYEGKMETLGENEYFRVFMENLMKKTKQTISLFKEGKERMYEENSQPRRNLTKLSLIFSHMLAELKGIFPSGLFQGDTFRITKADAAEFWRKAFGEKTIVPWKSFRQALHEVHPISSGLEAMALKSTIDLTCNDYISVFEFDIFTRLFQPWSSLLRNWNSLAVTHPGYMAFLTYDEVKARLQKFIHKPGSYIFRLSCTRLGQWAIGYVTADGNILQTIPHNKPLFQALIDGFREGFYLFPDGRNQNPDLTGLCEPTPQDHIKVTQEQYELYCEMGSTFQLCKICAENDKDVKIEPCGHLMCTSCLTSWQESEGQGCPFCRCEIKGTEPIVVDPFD
SMILES,EC50 [1] [nM],IC50 [2] [nM],IC50 [3] [nM]
"COc1cc(CN[C@@H]2C[C@H](O)C2(C)C)cc2nc(-c3cccc(-c4ccc(F)cc4-c4nncn4C)c3)oc12 [HF-1, (1S,3R)-3-(((2-(4′-Fluoro-2′-(4-methyl-4H-1,2,4-triazol-3-yl)-[1,1′-biphenyl]-3-yl)-7-methoxybenzo[d]oxazol-5-yl)methyl)amino)-2,2-dimethylcyclobutan-1-ol]",1000 to 10000,< 200,200 to 1000
"COCCNC(COC)c1cc(C)c2oc(-c3cccc(-c4ccc(F)cc4-c4nncn4C)c3)nc2c1 (stereo not drawn) [JK-7, 1-(2-(4′-Fluoro-2′-(4-methyl-4H-1,2,4-triazol-3-yl)-[1,1′-biphenyl]-3-yl)-7-methylbenzo[d]oxazol-5-yl)-2-methoxy-N-(2-methoxyethyl)ethan-1-amine]",1000 to 10000,< 200,200 to 1000
"Cn1cnnc1-c1cc(F)ccc1-c1cccc(-c2nc3cc(C(NCC4CCC4)C(F)(F)F)cc(F)c3o2)c1 (racemic) [IL-6, rac-N-(Cyclobutylmethyl)-2,2,2-trifluoro-1-(7-fluoro-2-(4′-fluoro-2′-(4-methyl-4H-1,2,4-triazol-3-yl)-[1,1′-biphenyl]-3-yl)benzo[d]oxazol-5-yl)ethan-1-amine]",200 to 1000,1000 to 10000,1000 to 10000
"Cn1cnnc1-c1cc(F)ccc1-c1cccc(-c2nc3cc(CNCC(C)(C)O)ccc3o2)c1 [AO-2, 1-(((2-(4′-Fluoro-2′-(4-methyl-4H-1,2,4-triazol-3-yl)-[1,1′-biphenyl]-3-yl)benzo[d]oxazol-5-yl)methyl)amino)-2-methylpropan-2-ol]",200 to 1000,< 200,1000 to 10000
"O[C@H]1CCC[C@H]1NCc1cc(C(F)(F)F)c2oc(-c3cccc(-c4ccc(F)cc4-c4nnco4)c3)nc2c1 [IG-6, (1S,2R)-2-(((2-(4′-Fluoro-2′-(1,3,4-oxadiazol-2-yl)-[1,1′-biphenyl]-3-yl)-7-(trifluoromethyl)benzo[d]oxazol-5-yl)methyl)amino)cyclopentan-1-ol]",200 to 1000,< 200,< 200
"COCCNCc1cc(C2CC2)c2oc(-c3cccc(-c4ccc(F)cc4-c4nncn4C)c3)nc2c1 [JH-1, N-((7-Cyclopropyl-2-(4′-fluoro-2′-(4-methyl-4H-1,2,4-triazol-3-yl)-[1,1′-biphenyl]-3-yl)benzo[d]oxazol-5-yl)methyl)-2-methoxyethan-1-amine]",< 200,< 200,< 200
"Cn1cnnc1-c1cc(F)ccc1-c1cc(-c2nc3cc(CNCC4CC4)ccc3o2)nc(C2CC2)c1 [AEI-1, [(2-{6-Cyclopropyl-4-[4-fluoro-2-(4-methyl-1,2,4-triazol-3-yl)phenyl]pyridin-2-yl}-1,3-benzoxazol-5-yl)methyl](cyclopropylmethyl)amine]",200 to 1000,< 200,< 200

# The next lines start with the values.
EC50 [1] [nM],IC50 [2] [nM],IC50 [3] [nM],SMILES
< 200,< 200,< 200,"Cn1cnnc1-c1cc(F)ccc1-c1cc(-c2nc3cc(CN[C@@H]4CCC[C@@H]4O)cc(C(F)(F)F)c3o2)cc(C2CC2)c1 [ACZ-8, (1S,2R)-2-[({2-[5-Cyclopropyl-4′-fluoro-2′-(4-methyl-1,2,4-triazol-3-yl)-[1,1′-biphenyl]-3-yl]-7-(trifluoromethyl)-1,3-benzoxazol-5-yl}methyl)amino]cyclopentan-1-ol]"
200 to 1000,< 200,1000 to 10000,"C[C@@H](O)CNCc1cc(C(F)(F)F)c2oc(-c3cccc(-c4ccc(F)cc4-c4nncn4C)c3)nc2c1 [AL-2, (R)-1-(((2-(4′-Fluoro-2′-(4-methyl-4H-1,2,4-triazol-3-yl)-[1,1′-biphenyl]-3-yl)-7-(trifluoromethyl)benzo[d]oxazol-5-yl)methyl)amino)propan-2-ol]"
200 to 1000,< 200,200 to 1000,"Cn1cnnc1-c1cc(F)ccc1-c1cccc(-c2nc3cc(CN4CCCC[C@@H]4CO)cc(C(F)(F)F)c3o2)c1 [IV-2, (R)-(1-((2-(4′-Fluoro-2′-(4-methyl-4H-1,2,4-triazol-3-yl)-[1,1′-biphenyl]-3-yl)-7-(trifluoromethyl)benzo[d]oxazol-5-yl)methyl)piperidin-2-yl)methanol]"
< 200,< 200,< 200,"Cc1cc(CN[C@@H]2CCC[C@@H]2O)cc2nc(-c3cccc(-c4ccc(F)cc4-c4nncn4C)c3)oc12 [FG-2, (1S,2R)-2-(((2-(4′-Fluoro-2′-(4-methyl-4H-1,2,4-triazol-3-yl)-[1,1′-biphenyl]-3-yl)-7-methylbenzo[d]oxazol-5-yl)methyl)amino)cyclopentan-1-ol]"
< 200,< 200,< 200,"Cn1cnnc1-c1cc(F)ccc1-c1cccc(-c2nc3cc(CN[C@@H]4CCC[C@@H]4O)cc(C(C)(F)F)c3o2)c1 [FJ-2, (1S,2R)-2-(((7-(1,1-Difluoroethyl)-2-(4′-fluoro-2′-(4-methyl-4H-1,2,4-triazol-3-yl)-[1,1′-biphenyl]-3-yl)benzo[d]oxazol-5-yl)methyl)amino)cyclopentan-1-ol]"
200 to 1000,< 200,1000 to 10000,"Cn1cnnc1-c1cc(F)ccc1-c1cccc(-c2nc3cc(CNCC(C)(C)F)cc(C(F)(F)F)c3[nH]2)c1 [CD-2, 2-Fluoro-N-((2-(4′-fluoro-2′-(4-methyl-4H-1,2,4-triazol-3-yl)-[1,1′-biphenyl]-3-yl)-7-(trifluoromethyl)-1H-benzo[d]imidazol-5-yl)methyl)-2-methylpropan-1-amine, Formic Acid]"
< 200,< 200,< 200,"Cn1cnnc1-c1cc(F)ccc1-c1cccc(-c2nc3cc(CNCC(C)(C)O)c(F)c(F)c3o2)c1 [JD-1, 1-(((6,7-Difluoro-2-(4′-fluoro-2′-(4-methyl-4H-1,2,4-triazol-3-yl)-[1,1′-biphenyl]-3-yl)benzo[d]oxazol-5-yl)methyl)amino)-2-methylpropan-2-ol]"
< 200,< 200,< 200,"CCCNCc1cc(C(F)(F)F)c2oc(-c3cccc(-c4ccc(F)cc4-c4nncn4C)c3)nc2c1 [FL-2, N-((2-(4′-Fluoro-2′-(4-methyl-4H-1,2,4-triazol-3-yl)-[1,1′-biphenyl]-3-yl)-7-(trifluoromethyl)benzo[d]oxazol-5-yl)methyl)propan-1-amine]"
1000 to 10000,< 200,200 to 1000,"Cn1cnnc1-c1cc(F)ccc1-c1cccc(-c2nc3cc(CNS(C)(=O)=O)cc(C(F)(F)F)c3o2)c1 [EC-1, N-((2-(4′-Fluoro-2′-(4-methyl-4H-1,2,4-triazol-3-yl)-[1,1′-biphenyl]-3-yl)-7-(trifluoromethyl)benzo[d]oxazol-5-yl)methyl)methanesulfonamide]"
< 200,< 200,< 200,COc1cc(CN[C@@H]2CCC[C@@H]2O)cc2nc(-c3cc(-c4ccc(F)cc4-c4nncn4C)cc(C4CC4)n3)oc12 [AEY-2]
200 to 1000,< 200,1000 to 10000,"Cn1cnnc1-c1cc(F)ccc1-c1cccc(-c2nc3cc(CNCC4(O)COC4)cc(C(F)(F)F)c3[nH]2)c1 [BQ-1, 3-((((2-(4′-Fluoro-2′-(4-methyl-4H-1,2,4-triazol-3-yl)-[1,1′-biphenyl]-3-yl)-7-(trifluoromethyl)-1H-benzo[d]imidazol-5-yl)methyl)amino)methyl)oxetan-3-ol]"
